Results published in paper PMC12472391, “Borylated Five-Membered Ring Iminosugars: Synthesis, Spectroscopic Analysis, and Biological Evaluation for Glycosidase Inhibition and Anticancer Properties for Application in Boron Neutron Capture Therapy (BNCT)—Part 1” (Pharmaceuticals, 2025).

Legend:
[1] = biological target: α-D-glucosidase (rice) (Oryza sativa subsp. japonica, UniProt Q653V7); experiment: Glycosidase inhibition, Table 6 (Laboratory 1); format: biochemical; conditions: 1000 μM
[2] = biological target: T1, α-D-glucosidase (yeast) (Saccharomyces cerevisiae, UniProt P53341); experiment: Glycosidase inhibition, Table 7; format: biochemical; conditions: 1 mg/mL aqueous solution added, 27 °C, run in water
T1 construct: purchased Sigma
Protocol: (§1) All enzymes and para-nitrophenyl substrates were purchased from Sigma. Enzymes were assayed at 27 °C in citric acid (0.1M)/disodium hydrogen phosphate (0.2 M) buffers at the optimum pH for the enzyme. The incubation mixture consisted of […] enzyme solution, […] of 1 mg/mL aqueous solution of extract, and […] of the appropriate 5 mM para-nitrophenyl substrate made up in buffer at the optimum pH for the enzyme. The reactions were stopped by the addition of […] 0.4 M glycine (pH 10.4) during the exponential phase of the reaction, which had been determined at the beginning using uninhibited assays in which water replaced the inhibitor. Final absorbances were read at 405 nm using a Versamax microplate reader (Molecular Devices). Assays were carried out in triplicate, and the values given are the means of the three replicates per assay. All reactions run in water.

[3] = test system: β-D-glucosidase (almond); experiment: Glycosidase inhibition, Table 7; format: biochemical; conditions: 1 mg/mL aqueous solution added, 27 °C, run in water
Protocol: as §1

[4] = test system: β-D-glucuronidase (bovine liver); experiment: Glycosidase inhibition, Table 7; format: biochemical; conditions: 1 mg/mL aqueous solution added, 27 °C, run in water
Protocol: as §1

[5] = Appearance: 1 mL of water added to 1 mg of solid, and mixed; format: physicochemical
[6] = test system: A2780 ovarian carcinoma cells; experiment: Cancer screening, MTT growth inhibition; format: cell-based; conditions: 25 µM, 72-h exposure
Protocol: (§2) Two assays were run: the dose screen to ascertain cell growth inhibition in response to 25 µM of drug (on a blue background) and the dose response (GI50) (on a green background). For a discussion of BNCT as a radiotherapeutic modality, a rationalisation is provided here.
(§3) All test agents were prepared as stock solutions (20 mM) in dimethyl sulfoxide (DMSO) and stored at −20 °C. Cell lines used in the study included HT29, (colorectal carcinoma); U87, SJ-G2, (glioblastoma); MCF-7, (breast carcinoma); A2780 (ovarian carcinoma); H460 (lung carcinoma); A431 (skin carcinoma); Du145 (prostate carcinoma); BE2-C (neuroblastoma) and MiaPaCa-2 (pancreatic carcinoma); together with the one non-tumour derived normal breast cell line (MCF10A). All cell lines were incubated in a humidified atmosphere 5% CO2 at 37 °C. The cancer cell lines were maintained in Dulbecco’s modified Eagle’s medium (DMEM; Sigma, Australia) supplemented with foetal bovine serum (10%), sodium pyruvate (10 mM), penicillin (100 IUmL^−1), streptomycin (100 µg mL^−1), and L-glutamine (2 mM).
(§4) Growth inhibition was determined by plating cells in duplicate in medium (100 µL) at a density of 2500–4000 cells per well in 96-well plates. On day 0 (24 h after plating), when the cells are in logarithmic growth, medium (100 µL) with or without the test agent was added to each well. After a 72-h drug exposure, growth inhibitory effects were evaluated using the MTT (3-(4,5-dimethyltiazol-2-yl)-2,5-diphenyltetrazolium bromide) assay and absorbance read at 540 nm. The percentage growth inhibition was calculated at a fixed concentration of 25 µM, based on the difference between the optical density values on day 0 and those at the end of drug exposure. Each data point is the mean ± the standard error of the mean (SEM) calculated from three replicates, which were performed on separate occasions and separate cell line passages.

[7] = test system: A431 skin carcinoma cells; experiment: Cancer screening, MTT growth inhibition; format: cell-based; conditions: 25 µM, 72-h exposure
Protocol: as §2, §3, §4

[8] = test system: BE2-C neuroblastoma cells; experiment: Cancer screening, MTT growth inhibition; format: cell-based; conditions: 72-h exposure
Protocol: as §2, §3, §4

[9] = test system: Du145 prostate carcinoma cells; experiment: Cancer screening, MTT growth inhibition; format: cell-based; conditions: 72-h exposure
Protocol: as §2, §3, §4

[10] = test system: H460 lung carcinoma cells; experiment: Cancer screening, MTT growth inhibition; format: cell-based; conditions: 25 µM, 72-h exposure
Protocol: as §2, §3, §4

[11] = test system: HT29 colon carcinoma cells; experiment: Cancer screening, MTT growth inhibition; format: cell-based; conditions: 25 µM, 72-h exposure
Protocol: as §2, §3, §4

[12] = test system: MCF-7 breast carcinoma cells; experiment: Cancer screening, MTT growth inhibition; format: cell-based; conditions: 72-h exposure
Protocol: as §2, §3, §4

[13] = test system: MIA-Pa-Ca2 pancreatic carcinoma cells; experiment: Cancer screening, MTT growth inhibition; format: cell-based; conditions: 25 µM, 72-h exposure
Protocol: as §2, §3, §4

[14] = test system: SJ-G2 glioblastoma cells; experiment: Cancer screening, MTT growth inhibition; format: cell-based; conditions: 72-h exposure
Protocol: as §2, §3, §4

[15] = test system: U87 glioblastoma cells; experiment: Cancer screening, MTT growth inhibition; format: cell-based; conditions: 72-h exposure
Protocol: as §2, §3, §4

T1 sequence (P53341 whole entry): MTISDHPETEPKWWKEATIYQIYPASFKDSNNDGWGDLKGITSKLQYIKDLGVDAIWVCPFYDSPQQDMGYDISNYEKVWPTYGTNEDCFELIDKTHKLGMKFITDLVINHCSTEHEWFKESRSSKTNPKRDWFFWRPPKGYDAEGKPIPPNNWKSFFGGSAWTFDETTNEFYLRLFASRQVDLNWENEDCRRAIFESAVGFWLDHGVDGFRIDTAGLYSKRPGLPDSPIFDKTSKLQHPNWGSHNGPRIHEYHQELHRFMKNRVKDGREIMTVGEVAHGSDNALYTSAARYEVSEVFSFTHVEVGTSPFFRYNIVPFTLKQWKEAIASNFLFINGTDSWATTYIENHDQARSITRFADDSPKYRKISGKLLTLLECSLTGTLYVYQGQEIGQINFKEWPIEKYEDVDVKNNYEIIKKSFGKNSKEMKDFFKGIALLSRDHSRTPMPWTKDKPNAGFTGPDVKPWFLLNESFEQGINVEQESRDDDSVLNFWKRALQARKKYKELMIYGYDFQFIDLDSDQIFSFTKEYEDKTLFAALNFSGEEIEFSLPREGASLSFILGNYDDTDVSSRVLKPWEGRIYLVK
Chain of α-D-glucosidase (rice) (Q653V7 34-885): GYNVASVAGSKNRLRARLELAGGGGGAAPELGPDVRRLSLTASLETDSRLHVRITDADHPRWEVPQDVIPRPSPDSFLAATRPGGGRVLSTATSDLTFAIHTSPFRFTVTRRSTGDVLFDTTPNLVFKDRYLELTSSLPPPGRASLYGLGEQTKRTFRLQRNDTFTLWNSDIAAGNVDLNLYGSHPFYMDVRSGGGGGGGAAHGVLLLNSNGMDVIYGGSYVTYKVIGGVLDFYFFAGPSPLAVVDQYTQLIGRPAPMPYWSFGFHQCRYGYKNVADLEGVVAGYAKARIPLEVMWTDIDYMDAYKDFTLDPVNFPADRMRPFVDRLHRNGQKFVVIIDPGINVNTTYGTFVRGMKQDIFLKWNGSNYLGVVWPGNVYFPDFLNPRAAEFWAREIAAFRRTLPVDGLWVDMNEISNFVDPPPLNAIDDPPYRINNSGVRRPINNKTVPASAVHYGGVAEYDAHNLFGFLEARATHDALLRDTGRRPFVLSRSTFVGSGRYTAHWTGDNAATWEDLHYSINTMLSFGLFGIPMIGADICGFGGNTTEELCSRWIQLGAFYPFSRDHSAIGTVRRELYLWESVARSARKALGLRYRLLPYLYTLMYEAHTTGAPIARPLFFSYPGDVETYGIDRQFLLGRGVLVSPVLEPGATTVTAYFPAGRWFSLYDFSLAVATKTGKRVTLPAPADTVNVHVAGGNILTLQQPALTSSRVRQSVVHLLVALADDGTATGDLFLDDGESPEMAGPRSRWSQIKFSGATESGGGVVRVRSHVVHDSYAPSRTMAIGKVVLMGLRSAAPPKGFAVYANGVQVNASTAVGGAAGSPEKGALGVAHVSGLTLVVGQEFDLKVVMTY

Q: With “borocaptate sodium [BSH, reference compound]” as the substance, how does the “α-D-Glucosidase Rice, inhibition % at 1000 μM” value [1] read?
A: The value was “^a NI ^b (0%)”.

Q: What about the “α-D-Glucosidase Yeast, percentage inhibition” value [2] of the same substance?
A: Its value is 59%.

Q: And the “β-D-Glucosidase Almond, percentage inhibition” value [3]?
A: Its value is 47.3%.

Q: What about the “β-D-Glucuronidase Bovine Liver, percentage inhibition” value [4] of the same substance?
A: The value was 31.6%.

Q: And the Appearance [5]?
A: Its Appearance is “In solution”.

Q: And the “A2780 Ovarian Carcinoma, Percentage (%) Cell Growth Inhibition in response to 25 µM of Drug” value [6]?
A: The value was “* 2 ± 5%”.

Q: And the “A431 Skin Carcinoma, Percentage (%) Cell Growth Inhibition in response to 25 µM of Drug” value [7]?
A: Its value is “* <0%”.

Q: What about the “BE2-C Neuroblastoma, Percentage (%) Cell Growth Inhibition in response to 25 µM of Drug” value [8] of the same substance?
A: Its value is “* 10 ± 6%”.

Q: And the “Du145 Prostate Carcinoma, Percentage (%) Cell Growth Inhibition in response to 25 µM of Drug” value [9]?
A: Its value is “* 0 ± 8%”.

Q: And the “H460 Lung Carcinoma, Percentage (%) Cell Growth Inhibition in response to 25 µM of Drug” value [10]?
A: The value was “* 8 ± 2%”.

Q: What about the “HT29 Colon Carcinoma, Percentage (%) Cell Growth Inhibition in response to 25 µM of Drug” value [11] of the same substance?
A: Its value is “* 3 ± 2%”.

Q: What about the “MCF-7 Breast Carcinoma, Percentage (%) Cell Growth Inhibition in response to 25 µM of Drug” value [12] of the same substance?
A: Its value is “* 15 ± 3%”.

Q: And the “MIA-Pa-Ca2 Pancreatic Carcinoma, Percentage (%) Cell Growth Inhibition in response to 25 µM of Drug” value [13]?
A: Its value is “* 2 ± 6%”.

Q: What about the “SJ-G2 Glioblastoma, Percentage (%) Cell Growth Inhibition in response to 25 µM of Drug” value [14] of the same substance?
A: The value was “* 3 ± 8%”.

Q: And the “U87 Glioblastoma, Percentage (%) Cell Growth Inhibition in response to 25 µM of Drug” value [15]?
A: The value was “* <0%”.
